This passage reports IC50 results from patent publication US9120804B2, “8-substituted 2-amino-[1,2,4] triazolo [1, 5-A] pyrazines as Syk tryrosine kinase inhibitors and GCN2 serin kinase inhibitors” (Merck Patent GmbH, priority 2012, dated 2015).

The assay concerns the target T1, SYK (Homo sapiens, UniProt P43405).
T1 construct: 2.5 nM SYK, 400 nM Biotin-Aha-Aha-KEDPDYEWPSAKK
Description: SYK flash plate assay (enzyme assay). Type of assay: biochemical. In short, it runs like this:
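Radiometric Flashplate format: biotinylated peptide substrate (400 nM) and 33P-labelled ATP (10 μM) react with 2.5 nM enzyme for 1 hour at 30 °C in Hepes buffer, pH 7.5. After EDTA quench and washing, counts are taken; staurosporine defines non-specific signal, and IC50 values are derived.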
On to `CC1(C)CCOc2cc(Nc3nc4c(N5CCC6(CC5)CNC(=O)O6)nccn4n3)ccc21` [E55, 8-[2-(4,4-dimethyl-chroman-7-ylamino)-[1,2,4]triazolo[1,5-a]pyrazin-8-yl]-1-oxa-3,8-diaza-spiro[4.5]decan-2-one], for which the concentration for half-maximal inhibition (IC50) was < 100 nM. The same measure for `CC1(C)C(=O)Nc2cc(Nc3nc4c(N5CCc6nc(N)ncc6C5)nccn4n3)ccc21` [E56, 6-[8-(2-amino-7,8-dihydro-5H-pyrido[4,3-d]pyrimidin-6-yl)-[1,2,4]triazolo[1,5-a]pyrazin-2-ylamino]-3,3-dimethyl-1,3-dihydro-indol-2-one]: < 100 nM; for `CC1(C)C(=O)Nc2cc(Nc3nc4c(N5CCCCCC5)nccn4n3)ccc21` [E57, 6-(8-azepan-1-yl-[1,2,4]triazolo[1,5-a]pyrazin-2-ylamino)-3,3-dimethyl-1,3-dihydro-indol-2-one]: < 100 nM; for `CC1=NOCC2(CCN(c3nccn4nc(Nc5ccc6c(c5)NC(=O)C6(C)C)nc34)CC2)C1` [E58, 3,3-dimethyl-6-[8-(4-methyl-2-oxa-3,9-diaza-spiro[5.5]undec-3-en-9-yl)-[1,2,4]triazolo[1,5-a]pyrazin-2-ylamino]-1,3-dihydro-indol-2-one]: 100 to 300 nM. The value for `CC1(C)C(=O)Nc2cc(Nc3nc4c(N5CCC(c6ncc(C(F)(F)F)[nH]6)CC5)nccn4n3)ccc21` [E59] was < 100 nM. `CC1(C)C(=O)Nc2cc(Nc3nc4c(Nc5n[nH]c(C(F)(F)F)n5)nccn4n3)ccc21` [E60, 3,3-dimethyl-6-[8-(5-trifluoromethyl-1H-[1,2,4]triazol-3-ylamino)-[1,2,4]triazolo[1,5-a]pyrazin-2-ylamino]-1,3-dihydro-indol-2-one] returned a half-inhibitory concentration (IC50) of 300 to 3000 nM. As to `COC1=CC2C=CN=C2C=C1Nc1nc2c(N3CCC4(CC3)CNC(=O)O4)nccn2n1` (stereo not shown) [E61, 8-[2-(5-methoxy-3aH-indol-6-ylamino)-[1,2,4]triazolo[1,5-a]pyrazin-8-yl]-1-oxa-3,8-diaza-spiro[4.5]decan-2-one], the half-inhibitory concentration (IC50) was in the range of 3000 to 50000 nM. The same measure for `CC1(C)C(=O)Nc2cc(Nc3nc4c(N5C[C@@H](O)C[C@@H]5c5cccc(F)c5)nccn4n3)ccc21` [E62, 6-{8-[(2R,4S)-2-(3-fluoro-phenyl)-4-hydroxy-pyrrolidin-1-yl]-[1,2,4]triazolo[1,5-a]pyrazin-2-ylamino}-3,3-dimethyl-1,3-dihydro-indol-2-one]: 300 to 3000 nM; for `CC1(C)C(=O)Nc2cc(Nc3nc4c(N5CCC6(CC5)CNC(=O)C6)nccn4n3)ccc21` [E63, 8-[2-(3,3-dimethyl-2-oxo-2,3-dihydro-1H-indol-6-ylamino)-[1,2,4]triazolo[1,5-a]pyrazin-8-yl]-2,8-diaza-spiro[4.5]decan-3-one]: < 100 nM; for `CC1(C)C(=O)Nc2cc(Nc3nc4c(N5C[C@H](O)C[C@@H]5c5cccc(F)c5)nccn4n3)ccc21` [E64, 6-{8-[(2R,4R)-2-(3-fluoro-phenyl)-4-hydroxy-pyrrolidin-1-yl]-[1,2,4]triazolo[1,5-a]pyrazin-2-ylamino}-3,3-dimethyl-1,3-dihydro-indol-2-one]: 300 to 3000 nM.

`CC1(C)C(=O)Nc2cc(Nc3nc4c(N5CCC(CNCC(F)(F)F)C5)nccn4n3)ccc21` (stereo not shown) [E65, 3,3-dimethyl-6-(8-{3[(2,2,2-trifluoro-ethylamino)-methyl]-pyrrolidin-1-yl}-[1,2,4]triazolo[1,5-a]pyrazin-2-ylamino)-1,3-dihydro-indol-2-one]: the IC50 is 100 to 300 nM.

`CC1(C)C(=O)Nc2cc(Nc3nc4c(C5CCCC5)nccn4n3)ccc21` [E66, 6-(8-cyclopentyl-[1,2,4]triazolo[1,5-a]pyrazin-2-ylamino)-3,3-dimethyl-1,3-dihydro-indol-2-one] returned an IC50 of 300 to 3000 nM. The same measure for `CC1(C)C(=O)Nc2cc(Nc3nc4c(N5CC6CCC(C5)O6)nccn4n3)ccc21` [E67, 3,3-dimethyl-6-[8-(8-oxa-3-aza-bicyclo[3.2.1]oct-3-yl)-[1,2,4]triazolo[1,5-a]pyrazin-2-ylamino]-1,3-dihydro-indol-2-one]: < 100 nM.
